The record followed here is patent US20100081679A1, “DIAMINOPYRIMIDINES AS FUNGICIDES” (Bayer CropScience AG, priority 2007, published 2010).

Each structure is given as a SMILES string. Marks after values point to notes of the source that are not given here.

The nature of one series: logP determination via retention times, calibrated with unbranched alkan-2-ones. The settings on record: HPLC on reversed-phase C 18, method **: 43° C.; 0.1% aqueous phosphoric acid and acetonitrile; linear gradient 10% to 95% acetonitrile. Format: physicochemical.
Turning to `CN(c1nc(Nc2ccccc2)ncc1Cl)C1CC1` [compound 734], the logP is listed as 2.7**.
The same measure, in the same setting: the figure for `CSc1cccc(Nc2ncc(Cl)c(N(C)C3CC3)n2)c1` [compound 738] is 3.59**; for `CN(c1nc(Nc2cccc(N3CCCC3=O)c2)ncc1Cl)C1CC1` [compound 769] it is 2.22**; for `O=C1CCCN1c1cc(Nc2ncc(Br)c(NC3CC3)n2)ccc1F` [compound 771] it is 1.61**.

Still in this series, the particulars now being: HPLC on reversed-phase C18, method *: 40° C., 0.1% aqueous formic acid and acetonitrile, linear gradient 10% to 95% acetonitrile.
As to `CC(C)c1ccc(Nc2ncc(Cl)c(NC3CC3)n2)cc1` [compound 729], the logP was 2.54*.
Still for that read-out and setting: the same measure for `Cc1cccc(Nc2ncc(Br)c(NC3CC3)n2)c1` [compound 730]: 2.07*; for `Cc1cccc(Nc2ncc(Cl)c(NC3CC3)n2)c1` [compound 731]: 1.93*; for `CO/N=C(\C)c1cccc(Nc2ncc(Cl)c(NC3CC3)n2)c1` [compound 732]: 2.37*.
For the molecule `O=C1CCCCN1c1cccc(Nc2ncc(Br)c(NC3CC3)n2)c1` [compound 733], the logP was 1.55*.
Consider `O=C(c1cccc(Nc2ncc(Cl)c(NC3CC3)n2)c1)N1CCOCC1` [compound 735], for which the logP is 1.33*.
Still for that read-out and setting: the same measure for `C/C(=N/O)c1cccc(Nc2ncc(Cl)c(NC3CC3)n2)c1` [compound 736]: 1.52*; for `O=C(Nc1ccccc1)Nc1ccc(Nc2ncc(Cl)c(NC3CC3)n2)cc1` [compound 739]: 1.75*.
Still for that read-out and setting: the same measure for `FC(F)(F)c1ccc(Nc2ncc(Br)c(NC3CC3)n2)cc1` [compound 740]: 3.33*; for `N#Cc1cccc(Nc2ncc(Br)c(NC3CC3)n2)c1` [compound 741]: 2.26*; for `COc1ccc(Nc2ncc(Br)c(NC3CC3)n2)cc1OC` [compound 742]: 1.53*.
Take `Brc1ccc(Nc2ncc(Br)c(NC3CC3)n2)cc1` [compound 743]: the logP was 2.7*.
Same read-out and setting: the figure for `N#Cc1ccc(Nc2ncc(Br)c(NC3CC3)n2)cc1` [compound 744] is 2.43*.
For `FC(F)(F)Sc1ccc(Nc2ncc(Br)c(NC3CC3)n2)cc1` [compound 745], the logP is 3.9*.
The same measure, in the same setting: the figure for `CSc1ccc(Nc2ncc(Br)c(NC3CC3)n2)cc1Cl` [compound 746] is 3.03*.
The same measure, in the same setting: the same measure for `Brc1cnc(Nc2ccc(-c3cscn3)cc2)nc1NC1CC1` [compound 747]: 1.99*; for `FC(F)Oc1ccc(Nc2ncc(Br)c(NC3CC3)n2)cc1` [compound 748]: 2.21*; for `Clc1cc(Cl)cc(Nc2ncc(Br)c(NC3CC3)n2)c1` [compound 749]: 4.43*.
The same measure, in the same setting: the same measure for `CCOC(=O)c1cccc(Nc2ncc(Br)c(NC3CC3)n2)c1` [compound 750]: 2.4*.
As to `CCOc1cccc(Nc2ncc(Br)c(NC3CC3)n2)c1` [compound 751], the logP is on record as 2.18*.
Still for that read-out and setting: the same measure for `Brc1cnc(Nc2ccc3c(c2)OCO3)nc1NC1CC1` [compound 752]: 1.66*; for `FC(F)(F)Oc1ccc(Nc2ncc(Br)c(NC3CC3)n2)cc1Cl` [compound 753]: 4.13*; for `C=CC(=O)Nc1cccc(Nc2ncc(Br)c(NC3CC3)n2)c1` [compound 754]: 1.54*.
Still for that read-out and setting: the same measure for `C=CCNC(=O)c1ccc(Nc2ncc(Br)c(NC3CC3)n2)cc1` [compound 755]: 1.73*.
As for `CS(=O)(=O)Nc1ccc(Nc2ncc(Br)c(NC3CC3)n2)cc1` [compound 756], the logP is on record as 1.44*.
Still for that read-out and setting: the figure for `CNS(=O)(=O)Cc1ccc(Nc2ncc(Br)c(NC3CC3)n2)cc1` [compound 757] is 1.51*; for `CCOC(=O)Cc1ccc(Nc2ncc(Br)c(NC3CC3)n2)cc1` [compound 758] it is 2.06*.
Still for that read-out and setting: the same measure for `N#CCC(=O)c1ccc(Nc2ncc(Br)c(NC3CC3)n2)cc1` [compound 759]: 2.16*; for `CCC(=O)c1cc(Nc2ncc(Br)c(NC3CC3)n2)ccc1O` [compound 760]: 2.06*.
Still for that read-out and setting: the figure for `COc1cc(Nc2ncc(Br)c(NC3CC3)n2)cc(OC)c1OC` [compound 761] is 1.71*; for `COC(=O)c1ccc(Nc2ncc(Br)c(NC3CC3)n2)cc1` [compound 762] it is 2.4*; for `CC(=O)c1cc(Nc2ncc(Br)c(NC3CC3)n2)ccc1O` [compound 763] it is 1.75*.
As to `Oc1ccc(Nc2ncc(Br)c(NC3CC3)n2)cc1F` [compound 764], the logP is given as 1.41*.
On the same count and under the same terms, the figure for `Oc1cccc(Nc2ncc(Br)c(NC3CC3)n2)c1` [compound 765] is 1.39*; for `OCc1cccc(Nc2ncc(Br)c(NC3CC3)n2)c1` [compound 766] it is 1.37*; for `CCC(=O)Nc1cc(Nc2ncc(Br)c(NC3CC3)n2)ccc1O` [compound 767] it is 1.85*.
Same read-out and setting: the same measure for `O=C(O)Cc1cccc(Nc2ncc(Cl)c(NC3CC3)n2)c1` [compound 768]: 1.23*.
Same read-out and setting: the figure for `O=C(c1cccc(Nc2ncc(Cl)c(NC3CC3)n2)c1)N1CCCCC1` [compound 770] is 1.94*.
Regarding `COCc1cccc(Nc2ncc(C(F)F)c(NCC3CC3)n2)c1` [compound 772], the logP is 1.73*.
The same measure, in the same setting: the figure for `FC(F)c1cnc(Nc2ccccc2)nc1NCC1CC1` [compound 773] is 1.68*; for `O=C1CCCN1c1cccc(Nc2ncc(C(F)F)c(NCC3CC3)n2)c1` [compound 774] it is 1.48*.

The series is the same for the next values; noted with them: HPLC reversed-phase C 18, EEC Directive 79/831 Annex V.A8; method *: 40° C., 0.1% aqueous formic acid and acetonitrile, linear gradient 10% to 95% acetonitrile.
In the case of `CCc1cccc(Nc2ncc(Br)c(NC3CC3)n2)c1` [compound 775], the logP is reported as 2.44*.
Take `CCc1cccc(Nc2ncc(Cl)c(NCC3CC3)n2)c1` [compound 776]: the logP is 2.37*.
On the same count and under the same terms, the figure for `CC(C)c1cccc(Nc2ncc(Cl)c(NCC3CC3)n2)c1` [compound 777] is 2.71*; for `CC(C)(C)c1cccc(Nc2ncc(Cl)c(NC3CC3)n2)c1` [compound 778] it is 2.9*.
On the same count and under the same terms, the same measure for `CC(C)(C)c1cccc(Nc2ncc(Br)c(NC3CC3)n2)c1` [compound 779]: 3.14*; for `CC(=O)Cc1cccc(Nc2ncc(Cl)c(NC3CC3)n2)c1` [compound 780]: 1.51*.
As for `CC(=O)Cc1cccc(Nc2ncc(Cl)c(NCC3CC3)n2)c1` [compound 781], the logP was 1.67*.
Still for that read-out and setting: the figure for `CC(=O)Cc1cccc(Nc2ncc(Br)c(NC3CC3)n2)c1` [compound 782] is 1.64*; for `CC(=O)Cc1cccc(Nc2ncc(C(F)(F)F)c(NC3CC3)n2)c1` [compound 783] it is 2.42*; for `CC(C)(O)c1cccc(Nc2ncc(Cl)c(NC3CC3)n2)c1` [compound 784] it is 1.47*.
On the same count and under the same terms, the figure for `O=C(O)c1cccc(Nc2ncc(Cl)c(NC3CC3)n2)c1` [compound 785] is 1.32*; for `O=C1COCCN1c1cccc(Nc2ncc(Cl)c(NCC3CC3)n2)c1` [compound 786] it is 1.31*; for `O=[N+]([O-])c1cccc(Nc2ncc(Cl)c(NC3CC3)n2)c1` [compound 788] it is 2.63*.
On the same count and under the same terms, the figure for `O=C1COCCN1c1cccc(Nc2ncc(Br)c(NC3CC3)n2)c1` [compound 789] is 1.24*; for `O=C1COCCN1c1cccc(Nc2ncc(C(F)(F)F)c(NC3CC3)n2)c1` [compound 790] it is 1.88*.
Take `O=C1COCCN1c1cccc(Nc2ncc(Cl)c(NC3CC3)n2)c1` [compound 791]: the logP is reported as 1.2*.
Consider `COC(c1cccc(Nc2ncc(Cl)c(NCC3CC3)n2)c1)C(F)(F)F` (stereo not shown) [compound 792], for which the logP is recorded as 2.74*.
The same measure, in the same setting: the same measure for `COCC(=O)Nc1cccc(Nc2ncc(Cl)c(NC3CC3)n2)c1` [compound 793]: 1.33*.
`N#CCc1cccc(Nc2ncc(Br)c(NC3CC3)n2)c1` [compound 794]: the logP is reported as 1.75*.
The same measure, in the same setting: the same measure for `O=C(O)CCc1cccc(Nc2ncc(Cl)c(NC3CC3)n2)c1` [compound 795]: 1.09*; for `COCC(C)NC(=O)c1cccc(Nc2ncc(Cl)c(NC3CC3)n2)c1` (stereo not shown) [compound 796]: 1.47*; for `CCSC(C)c1cccc(Nc2ncc(Br)c(NC3CC3)n2)c1` (stereo not shown) [compound 797]: 3.09*.
On the same count and under the same terms, the same measure for `OC(c1cccc(Nc2ncc(Br)c(NC3CC3)n2)c1)C(F)(F)F` (stereo not shown) [compound 798]: 1.94*; for `Clc1cnc(Nc2ccccc2)nc1NCC1CC1(Cl)Cl` (stereo not shown) [compound 800]: 2.46*.
Same read-out and setting: the figure for `Clc1cnc(Nc2ccccc2)nc1NC1(COc2ccccc2)CC1` [compound 801] is 2.88*.
On to `CC1COC(=O)N1c1cccc(Nc2ncc(F)c(NC3CC3)n2)c1` (stereo not shown) [compound 802], for which the logP is recorded as 1.18*.
Still for that read-out and setting: the same measure for `O=C1CCCCN1c1cccc(Nc2ncc(C(F)(F)F)c(NC3CC3)n2)c1` [compound 803]: 2.18*; for `O=C1CCCCN1c1cccc(Nc2ncc(F)c(NC3CC3)n2)c1` [compound 804]: 1.16*.
As for `COC(C)c1cccc(Nc2ncc(Br)c(NC3CC3)n2)c1` (stereo not shown) [compound 805], the logP is 2.08*.
In the case of `COC(C)c1cccc(Nc2ncc(Cl)c(NC3CC3)n2)c1` (stereo not shown) [compound 806], the logP was 1.96*.
On the same count and under the same terms, the same measure for `CSC(C)c1cccc(Nc2ncc(Cl)c(NC3CC3)n2)c1` (stereo not shown) [compound 807]: 2.52*; for `ClC1(Cl)CC1CNc1nc(Nc2ccccc2)ncc1Br` (stereo not shown) [compound 808]: 2.6*; for `Brc1cnc(Nc2ccccc2)nc1NCCC1CC1` [compound 809]: 2.18*.
Still for that read-out and setting: the figure for `CCSC(C)c1cccc(Nc2ncc(Cl)c(NC3CC3)n2)c1` (stereo not shown) [compound 810] is 2.82*; for `CSC(C)c1cccc(Nc2ncc(Br)c(NC3CC3)n2)c1` (stereo not shown) [compound 811] it is 2.63*; for `N#CCc1cc(Nc2ncc(Cl)c(NC3CC3)n2)ccc1F` [compound 813] it is 1.76*.
Still for that read-out and setting: the same measure for `N#CCc1cc(Nc2ncc(Cl)c(NCC3CC3)n2)ccc1F` [compound 816]: 1.87*.
